According to US20040229960A1, “Compositions and methods of administering tubulin binding agents for the treatment of ocular diseases” (priority 2001, published 2004):

Key:
retinoblastoma = test: Murine transgenic model of retinoblastoma, subconjunctival treatment; type: in vivo, SV-40 Large T antigen positive mice
Procedure: A murine transgenic model of retinoblastoma was used in which SV-40 Large T antigen positive mice develop bilateral retinoblastoma resembling human pediatric retinoblastoma. In this model, tumors first appear at 4 weeks of age and develop in a stable and reproducible manner (Hayden et al., Arch Ophthalmol. 2002;120(3):353-9). In one experiment, 12-week old animals (n=48) were treated with a single 20 ul subconjunctival injection of CA4P (100 mg/ml) in the right eye only. Control mice (n=8) were treated with a balanced salt solution (“BSS”). Eyes were sampled by enucleation at Days 1, 3, 7, 14, 21, and 28 post treatment (n=8 eyes per sample). Samples were fixed, paraffin embedded, serially sectioned, and stained with heometoxylin, eosin, and PAS prior. Each tissue sample was examined for histopathological tumor vascular response.
In a separate dosing experiment, animals (n=48) were treated with 6 serial biweekly subconjunctival injections of CA4P, at concentrations of 100, 10, 1, 0.1 or 0.01 mg/ml in a volume of 20 ul (n=6 eyes per sample). A control group (n=6) received serial subconjunctival injections of BSS. Eyes were enucleated at 28 days post-treatment and examined for tumor volume reduction. FIG. 5B illustrates the dose-dependent effect of CA4P on tumor vascular volume in comparison to control.

[1] = Primary ocular irritation, topical drops; type: in vivo
Procedure: The test article, CA4P, was evaluated for primary ocular irritation. A single 0.2 ml dose of CA4P dilution (0.1, 1.0, 10 and 100 mg/ml) was placed in the lower conjunctival sac of the left eye […]. The contralateral eye received buffered saline solution. Ocular reactions were evaluated at 24, 48 and 72 hours after the sample instillation.

pathological myopia = test: Human patient with pathological myopia, phase I/II study; type: in vivo
Text: A person was originally examined on Day One after complaining of visual obstructions in their left eye. The patient had received ocular lens implants in both eyes approximately 2 years earlier to correct for myopia. The patient was diagnosed with pathological myopia (also known as proliferative myopathy and myopic macular degeneration) and received a total of four treatments of Photodynamic Therapy (PDT, Visudyne™) in the left eye over the course of the next 8 months. […] In June 2003, the patient was diagnosed with pathological myopia in the right eye as well.
About 3 months later, the patient was enrolled in an open-label, pilot (phase I/II), dose-escalation safety and tolerability study of CA4P. At that time, the patient's best corrected visual acuity was 20/50-3 in the left eye and 20/25-3 in the right eye, as determined by a Snellen back-lit visual acuity test. […] On Day One of the study, the patient began treatment with an intravenous infusion of CA4P (free acid), at a dose of 27 mg/m2, over a 10 minute period. […] The patient received second, third, and fourth infusions of CA4P on Days 8, 15, and 22 of the study, with a maintenance of visual acuity and no active leakage in either eye.

[2] = system: choroidal neovascularization; test: Krypton laser murine model of choroidal neovascularization; type: in vivo, C57BL/6J mouse; details: for Average Vessel Lumen Area: vehicle 0.0129886
Procedure: Choroidal neovascularization is a major cause of severe vision loss in patients with age-related or wet macular degeneration. To investigate the capacity of CA4P to inhibit vascular growth in the choroids, a murine model of Choroidal Neovascularization was tested. In this model the investigator used a krypton laser to create a wound on the Bruch's membrane of a C57BL/6J mouse. Each eye received several burns. The burn elicited a classic wound-healing response that included neovascularization within the choroid. This krypton laser photocoagulation method has been described in Tobe et al., Am. J. of Pathology, 1998, 153(5):1641-6. […] Histopathology and fluorescein angiography were used to identify neovascularization surrounding the burn. Electron microscopy was used to measure the lumen diameter of fenestrated neovasculature within the choroidal neovascular lesions. Table 12 illustrates the results of CA4P treatment on the average vessel lumen area.

[3] = system: oxygen-induced retinal neovascularization; test: Murine model of oxygen-induced retinal neovascularization (ROP); type: in vivo; details: neonatal mouse treated upon removal from hyperoxic conditions
Text: The inner retina of the mammalian eye receives oxygen from the superficial retinal capillary bed. This capillary bed is located beneath the inner limiting membrane which serves as the interface between the inner retina and the outer avascular vitreous. The pathology of retinal neovascularization or retinopathy arises from ischemia-induced growth of neovasculature beyond the retinal inner limiting membrane and into the vitreous, causing severe loss of vision and frequently leading to retinal detachment. […] In this model neonatal mice are exposed to sustained hyperoxic conditions (75% oxygen for 7 days) that inhibit the development of the superficial retinal capillary bed. When a mouse pup is removed from the pure oxygen environment and placed in the relative hypoxia of environmental oxygen, the underdeveloped superficial retinal capillary bed is unable to deliver sufficient quantities of oxygen to the retina. […]
It is expected that the treatment of a neonatal mouse with CA4P immediately upon its removal from hyperoxic conditions would be an effective treatment method for ROP. Retinal neovascularization can be quantified by counting the number chemically stained nuclei of penetrating endothelial cells in retinal tissue section of treated and untreated eyes according to existing methods (Majka et al., Invest. Ophthalmol. Vis. Sci. 2001, 42: 210-15).

Compound: COc1ccc(/C=C\c2cc(OC)c(OC)c(OC)c2)cc1OP(=O)([O-])[O-].[Na+].[Na+] [CA4P, combretastatin A4 disodium phosphate]
- Intratumoral vascularity (retinoblastoma; 6 serial biweekly subconjunctival injections, dose levels above 10 mg/ml, 28 days post-treatment): No intratumoral vascularity was present
- Toxicity (retinoblastoma; any time point or treatment dose (0.01-100 mg/ml subconjunctival)): no evidence of toxicity was noted
- Intratumoral vascularization (retinoblastoma; single 20 ul subconjunctival injection, 100 mg/ml, Days 1, 3 and 7): significant reduction in intratumoral vascularization
- Irritation (Draize Scores) ([1]; Topical, 0-10 mg): No Irritation
- Macroscopic ocular reaction vs control ([1]; all dilutions 0.1-100 mg/ml, single 0.2 ml topical dose, 24-72 h): insignificant
- Microscopic ocular irritation vs buffered saline ([1]; topical drops 0.1-100 mg/ml): not considered an irritant
- Improvement of Snellen visual acuity, left eye (pathological myopia; 27 mg/m2 i.v. weekly): improved by five lines to 20/20 vision
- Leakage in fluorescein angiography of either eye (pathological myopia; Day 8 after 27 mg/m2 i.v. infusion, active leakage in both eyes at baseline): No active leakage was observed
- Average Vessel Lumen Area ([2]; 10 mg/kg): 0.01186 mm^2
- Average Vessel Lumen Area ([2]; 20 mg/kg): 0.01101 mm^2
- Average Vessel Lumen Area ([2]; 100 mg/kg IP): 0.007612 mm^2
- Less vascular lumen area compared to saline ([2]; 100 mg/kg/day IP): approximately 50%
- Number of nuclei penetrating the inner limiting membrane [3]: significantly reduced
